Assay results published in ChEMBL document CHEMBL1201862, “PubChem BioAssay data set” (2004).
Activity calls are given as the source filed them.

How the values were obtained:
[1] = tested on: SN12K1; assay: cells; type: functional; conditions: Homo sapiens
[2] = tested on: P388; assay: cells; type: functional; conditions: Mus musculus
[3] = tested on: P388/ADR; assay: cells; type: functional; conditions: Mus musculus
[4] = target: T1, Calpain-2 catalytic subunit (Sus scrofa, UniProt P43367); assay: pig calpain II inhibitor potency, dose response, biochemical, fluorogenic peptide substrate (AID 1420); type: functional
T1 sequence (P43367 whole entry): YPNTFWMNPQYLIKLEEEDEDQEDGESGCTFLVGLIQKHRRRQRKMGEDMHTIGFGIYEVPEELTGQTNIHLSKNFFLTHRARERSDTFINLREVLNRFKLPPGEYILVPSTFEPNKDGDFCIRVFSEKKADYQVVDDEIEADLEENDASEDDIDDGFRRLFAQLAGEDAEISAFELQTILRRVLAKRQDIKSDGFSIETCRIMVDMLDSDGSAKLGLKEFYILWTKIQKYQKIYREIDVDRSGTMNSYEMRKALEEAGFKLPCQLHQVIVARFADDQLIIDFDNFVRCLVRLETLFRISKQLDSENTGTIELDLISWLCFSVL

[5] = target: T2, Polyadenylate-binding protein 1 (Homo sapiens, UniProt P11940); assay: PABP1 MLLE–PAM2 binding inhibitor potency, dose response, biochemical, fluorescence polarization, FITC-PAM2 peptide (AID 602259); type: functional; conditions: read-out: IC50_Mean
[6] = target: T2, Polyadenylate-binding protein 1; assay: PABP1 MLLE–PAM2 interaction inhibitors, dose response, miRNA deadenylation inhibitor project, biochemical, fluorescence polarization, Cy5-PAM2 peptide, secondary (AID 602260); type: functional; conditions: read-out: IC50_Mean
[7] = target: Prothrombin (Homo sapiens, UniProt P00734); assay: Thrombin 1536 HTS Dose Response Confirmation. [Related pubchem assays: 1046 (Thrombin 1536 HTS; hits were confirmed in this assay)]; type: functional
[8] = cells; type: functional, cell-based
[9] = cells; type: functional, cell-based; remark: listed apart in the source
[10] = tested on: INS1; assay: beta cell apoptosis inhibitors, cytokine rescue, dose response, luminescence, retest (AID 449756); type: functional, cell-based; conditions: Rattus norvegicus;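 note: cell death triggered by IL-1 beta plus TNF-alpha plus IFN-gamma mixture; protective hits raise ATP signal compared with cytokine alone wells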
[11] = target: Nonstructural protein 1 (Influenza A virus, UniProt Q194T2); type: functional, Influenza A virus (A/California/07/2009(H1N1))
[12] = target: Genome polyprotein (dengue virus type 2, UniProt P29990); assay: Dengue-2 NS5 methyltransferase inhibitors, primary screen, biochemical, confirmation dose response (AID 588689); type: functional
[13] = Luminescence Cell-Based Dose Retest to Confirm Inhibitors of Cancer Stem Cells. [Related pubchem assays (depositor defined):AID2717, AID2721]; type: functional; conditions: Homo sapiens
[14] = growth suppression of beta-catenin-knockout colon cells, dose response, cell-based, HCT116, human colon tumor (AID 1045); type: functional;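 note: HCT116 colon tumor cells with beta catenin knocked out; cells exposed to compound for 60 hours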
[15] = growth suppression of PTEN-null colon cells, dose response, cell-based, HCT116 PTEN knockout (AID 1047); type: functional;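 note: HCT116 colon tumor cells with PTEN knocked out; cells exposed to compound for 60 hours before readout; potency for loss of cell viability measured by luminescence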
[16] = target: Large T antigen (Simian virus 40, UniProt P03070); type: functional, Betapolyomavirus macacae;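 note: Confirmatory-stage PubChem screen for compounds that inhibit SV40 T antigen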
[17] = target: T3, Cytochrome P450 1A2 (Homo sapiens, UniProt P05177);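 note: PubChem cytochrome P450 panel assay, CYP1A2 panel member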
T3 sequence (P05177 whole entry): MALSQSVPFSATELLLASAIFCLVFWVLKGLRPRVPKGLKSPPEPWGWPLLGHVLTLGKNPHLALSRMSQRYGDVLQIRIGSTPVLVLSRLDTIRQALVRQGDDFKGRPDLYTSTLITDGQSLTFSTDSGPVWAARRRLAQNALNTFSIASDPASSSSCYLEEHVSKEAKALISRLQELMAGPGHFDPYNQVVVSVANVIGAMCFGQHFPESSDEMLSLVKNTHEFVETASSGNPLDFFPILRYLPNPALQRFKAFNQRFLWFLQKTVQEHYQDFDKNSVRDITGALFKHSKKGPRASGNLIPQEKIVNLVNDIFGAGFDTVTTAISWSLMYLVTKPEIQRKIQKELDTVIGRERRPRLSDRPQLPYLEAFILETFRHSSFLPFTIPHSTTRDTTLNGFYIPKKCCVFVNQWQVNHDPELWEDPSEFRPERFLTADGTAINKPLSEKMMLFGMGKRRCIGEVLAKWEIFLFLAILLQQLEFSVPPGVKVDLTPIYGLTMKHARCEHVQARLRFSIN

[18] = target: Cytochrome P450 2D6 (Homo sapiens, UniProt P10635);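 note: CYP2D6 member of a cytochrome P450 panel assay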
[19] = target: Cytochrome P450 2C9 (Homo sapiens, UniProt P11712)
[20] = Shn3 3'UTR reporter inhibitors, dose response, cell-based, Clone20 osteoblasts, firefly luciferase, cherry-picked (AID 624132); type: functional;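 note: firefly luciferase luminescence from reporter carrying the Shn3 3'UTR in osteoblasts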
[21] = control 3'UTR Renilla luciferase suppression, dose response, counter-screen for Shn3 inhibitor project, cell-based, Clone20-Shn3RL, cherry-picked (AID 624133); type: functional
[22] = target: T4, Protein skinhead-1 (Caenorhabditis elegans, UniProt P34707); type: functional
T4 sequence (P34707 whole entry): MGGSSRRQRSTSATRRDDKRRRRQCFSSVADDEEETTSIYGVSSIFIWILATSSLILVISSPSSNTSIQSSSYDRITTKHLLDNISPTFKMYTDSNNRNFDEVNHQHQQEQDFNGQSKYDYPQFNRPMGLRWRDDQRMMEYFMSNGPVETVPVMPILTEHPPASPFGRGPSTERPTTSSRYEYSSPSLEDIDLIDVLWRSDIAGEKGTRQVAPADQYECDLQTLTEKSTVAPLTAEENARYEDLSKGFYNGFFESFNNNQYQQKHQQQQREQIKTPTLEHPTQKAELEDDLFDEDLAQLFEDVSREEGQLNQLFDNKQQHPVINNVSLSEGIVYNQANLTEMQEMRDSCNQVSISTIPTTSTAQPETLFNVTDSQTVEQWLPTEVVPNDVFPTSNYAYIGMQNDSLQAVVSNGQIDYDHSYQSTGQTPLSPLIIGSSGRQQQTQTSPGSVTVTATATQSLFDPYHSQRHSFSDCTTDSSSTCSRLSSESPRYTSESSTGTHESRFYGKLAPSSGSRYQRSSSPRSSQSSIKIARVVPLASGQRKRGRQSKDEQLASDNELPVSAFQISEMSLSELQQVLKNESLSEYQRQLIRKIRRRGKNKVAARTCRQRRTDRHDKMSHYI

[23] = HEp-2 cell cytotoxicity, dose response, cytotoxicity control for RSV inhibitor project, HTS (AID 2410); type: functional; conditions: human respiratory syncytial virus
[24] = HepG2 cell cytotoxicity, dose response, cytotoxicity control for Shn3 inhibitor project, CellTiter-Glo, cherry-picked (AID 624134); type: functional, cell-based
[25] = target: T5, Heat shock factor protein 1 (Mus musculus, UniProt P38532); assay: inhibition of MG132-induced HSE-luciferase signal, confirmation, cell-based, NIH3T3, luminescence, dose retest (AID 2382); type: functional;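 note: NIH3T3 fibroblasts with HSF1-driven luciferase reporter stressed by proteasome inhibitor MG132; luminescence from HSF1-driven luciferase expression after 8 hours of MG132 stress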
T5 sequence (P38532 whole entry): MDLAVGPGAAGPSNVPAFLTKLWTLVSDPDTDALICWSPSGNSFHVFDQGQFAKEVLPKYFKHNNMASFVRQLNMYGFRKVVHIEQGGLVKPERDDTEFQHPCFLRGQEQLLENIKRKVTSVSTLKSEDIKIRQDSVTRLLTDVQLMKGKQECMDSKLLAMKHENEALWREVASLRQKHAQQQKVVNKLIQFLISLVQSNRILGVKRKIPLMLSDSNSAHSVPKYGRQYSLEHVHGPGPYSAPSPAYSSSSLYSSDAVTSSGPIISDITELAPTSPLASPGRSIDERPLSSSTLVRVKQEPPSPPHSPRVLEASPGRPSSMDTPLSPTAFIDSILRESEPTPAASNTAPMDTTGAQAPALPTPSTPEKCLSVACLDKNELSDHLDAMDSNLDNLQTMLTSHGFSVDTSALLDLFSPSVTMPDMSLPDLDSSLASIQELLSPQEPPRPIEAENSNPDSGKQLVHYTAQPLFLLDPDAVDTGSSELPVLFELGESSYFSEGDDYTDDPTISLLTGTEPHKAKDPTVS

Large T antigen, sequence (P03070 whole entry): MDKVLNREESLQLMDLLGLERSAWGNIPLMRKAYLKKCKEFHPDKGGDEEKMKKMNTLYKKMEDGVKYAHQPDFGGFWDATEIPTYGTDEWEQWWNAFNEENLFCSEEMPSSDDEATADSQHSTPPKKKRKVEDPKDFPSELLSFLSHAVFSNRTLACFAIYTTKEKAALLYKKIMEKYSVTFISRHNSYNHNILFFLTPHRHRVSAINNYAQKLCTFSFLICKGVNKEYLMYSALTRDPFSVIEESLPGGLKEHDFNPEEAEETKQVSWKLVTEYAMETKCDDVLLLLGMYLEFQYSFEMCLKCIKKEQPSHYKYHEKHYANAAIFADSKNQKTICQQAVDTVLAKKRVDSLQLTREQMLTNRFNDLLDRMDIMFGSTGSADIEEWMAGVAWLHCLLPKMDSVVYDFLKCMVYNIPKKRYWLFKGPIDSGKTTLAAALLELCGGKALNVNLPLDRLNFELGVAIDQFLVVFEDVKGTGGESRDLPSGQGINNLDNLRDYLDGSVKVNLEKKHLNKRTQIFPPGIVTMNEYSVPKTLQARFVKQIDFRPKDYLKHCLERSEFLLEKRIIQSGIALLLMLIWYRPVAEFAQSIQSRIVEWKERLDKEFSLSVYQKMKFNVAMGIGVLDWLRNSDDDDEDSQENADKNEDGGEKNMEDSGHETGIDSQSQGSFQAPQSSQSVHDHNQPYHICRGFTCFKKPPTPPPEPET
T2 sequence (P11940 whole entry): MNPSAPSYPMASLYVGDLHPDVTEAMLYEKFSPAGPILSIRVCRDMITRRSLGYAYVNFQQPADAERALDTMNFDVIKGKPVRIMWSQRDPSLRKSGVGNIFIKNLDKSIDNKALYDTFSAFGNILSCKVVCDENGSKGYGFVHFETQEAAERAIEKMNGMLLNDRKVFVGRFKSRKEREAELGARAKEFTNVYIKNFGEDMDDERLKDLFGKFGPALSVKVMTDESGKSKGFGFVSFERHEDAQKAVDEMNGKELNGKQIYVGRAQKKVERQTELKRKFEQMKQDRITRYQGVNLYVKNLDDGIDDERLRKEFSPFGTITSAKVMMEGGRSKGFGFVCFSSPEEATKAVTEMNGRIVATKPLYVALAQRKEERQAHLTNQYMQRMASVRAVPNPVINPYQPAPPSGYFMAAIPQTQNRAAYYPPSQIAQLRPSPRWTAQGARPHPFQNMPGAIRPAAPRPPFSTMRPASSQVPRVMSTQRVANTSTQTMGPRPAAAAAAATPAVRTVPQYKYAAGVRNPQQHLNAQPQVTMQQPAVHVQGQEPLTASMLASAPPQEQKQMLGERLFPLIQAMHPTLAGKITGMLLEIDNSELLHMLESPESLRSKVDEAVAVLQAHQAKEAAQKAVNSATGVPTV
Nonstructural protein 1, sequence (Q194T2 whole entry): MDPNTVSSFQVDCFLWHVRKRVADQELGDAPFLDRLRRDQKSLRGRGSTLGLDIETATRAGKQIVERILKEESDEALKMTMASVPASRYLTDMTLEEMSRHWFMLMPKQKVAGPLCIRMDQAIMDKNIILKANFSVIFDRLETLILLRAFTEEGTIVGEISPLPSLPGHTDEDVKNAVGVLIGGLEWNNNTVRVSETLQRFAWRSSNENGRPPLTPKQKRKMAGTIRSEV
Cytochrome P450 2D6, sequence (P10635 whole entry): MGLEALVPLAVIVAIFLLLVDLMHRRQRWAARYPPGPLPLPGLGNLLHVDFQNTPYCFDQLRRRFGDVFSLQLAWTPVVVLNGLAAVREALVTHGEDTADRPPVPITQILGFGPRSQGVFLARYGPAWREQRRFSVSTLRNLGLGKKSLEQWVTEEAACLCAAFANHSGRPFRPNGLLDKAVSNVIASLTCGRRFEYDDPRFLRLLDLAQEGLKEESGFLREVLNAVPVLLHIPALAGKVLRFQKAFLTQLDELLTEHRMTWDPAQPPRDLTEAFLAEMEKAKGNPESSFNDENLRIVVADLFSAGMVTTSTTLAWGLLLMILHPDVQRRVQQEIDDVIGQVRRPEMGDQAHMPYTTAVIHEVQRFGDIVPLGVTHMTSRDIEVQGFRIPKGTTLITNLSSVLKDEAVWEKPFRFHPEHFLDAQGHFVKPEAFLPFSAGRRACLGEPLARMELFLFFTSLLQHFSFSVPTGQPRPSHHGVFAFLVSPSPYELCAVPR
Cytochrome P450 2C9, sequence (P11712 whole entry): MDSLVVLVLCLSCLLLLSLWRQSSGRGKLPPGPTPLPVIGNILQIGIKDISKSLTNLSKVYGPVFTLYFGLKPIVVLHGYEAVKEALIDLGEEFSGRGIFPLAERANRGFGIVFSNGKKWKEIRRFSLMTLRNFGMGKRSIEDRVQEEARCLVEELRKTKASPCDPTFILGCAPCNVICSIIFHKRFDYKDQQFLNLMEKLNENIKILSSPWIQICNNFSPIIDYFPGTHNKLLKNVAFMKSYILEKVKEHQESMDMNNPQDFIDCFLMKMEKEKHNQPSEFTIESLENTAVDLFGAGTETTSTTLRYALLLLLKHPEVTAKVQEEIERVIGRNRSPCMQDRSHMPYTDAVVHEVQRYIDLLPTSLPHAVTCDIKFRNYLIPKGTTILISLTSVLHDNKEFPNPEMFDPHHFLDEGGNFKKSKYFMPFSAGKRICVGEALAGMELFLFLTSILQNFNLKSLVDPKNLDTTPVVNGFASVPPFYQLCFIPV
Genome polyprotein, sequence (P29990 2492-3391 limits assumed): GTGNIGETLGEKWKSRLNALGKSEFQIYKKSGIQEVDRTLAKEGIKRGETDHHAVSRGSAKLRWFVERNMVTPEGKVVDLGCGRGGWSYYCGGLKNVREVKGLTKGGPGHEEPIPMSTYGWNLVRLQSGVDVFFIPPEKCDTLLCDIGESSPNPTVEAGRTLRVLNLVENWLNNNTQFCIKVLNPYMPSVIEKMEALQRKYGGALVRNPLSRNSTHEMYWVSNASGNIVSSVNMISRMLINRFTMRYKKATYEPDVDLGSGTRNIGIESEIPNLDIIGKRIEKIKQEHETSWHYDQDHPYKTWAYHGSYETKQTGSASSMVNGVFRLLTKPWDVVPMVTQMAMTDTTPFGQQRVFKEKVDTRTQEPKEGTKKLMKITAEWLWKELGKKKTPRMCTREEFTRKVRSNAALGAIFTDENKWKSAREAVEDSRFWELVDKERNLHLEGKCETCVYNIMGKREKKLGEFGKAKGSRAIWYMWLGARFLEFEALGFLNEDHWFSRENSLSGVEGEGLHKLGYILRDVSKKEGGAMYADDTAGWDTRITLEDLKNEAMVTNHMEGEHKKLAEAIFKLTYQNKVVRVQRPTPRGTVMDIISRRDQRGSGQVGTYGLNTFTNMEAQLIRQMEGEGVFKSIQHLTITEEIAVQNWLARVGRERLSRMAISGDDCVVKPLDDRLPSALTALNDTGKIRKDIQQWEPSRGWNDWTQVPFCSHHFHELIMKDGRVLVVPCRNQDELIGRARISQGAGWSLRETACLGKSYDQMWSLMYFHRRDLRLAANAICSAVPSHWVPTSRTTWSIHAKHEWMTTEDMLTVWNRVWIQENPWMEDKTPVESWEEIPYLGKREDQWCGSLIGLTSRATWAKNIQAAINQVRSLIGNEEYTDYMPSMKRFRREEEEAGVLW

CN(C)C(=O)Oc1c(Br)cc(Br)cc1C(=O)OCc1ccccc1
GI50 [1]: 28.4 µM (inactive)
GI50 [2]: 17.9 µM (inactive)
GI50 [3]: 16 µM (inactive)

CC(C)Cn1c(N)c(C(=O)COC(=O)c2ccc(F)cc2)c(=O)n(C)c1=O
IC50 [4]: 4.8 µM (not active)

O=C1CC(c2ccccc2)Cc2nc(N3CCc4ccccc4C3)ncc21 (stereo not drawn)
IC50 [4]: 6.43 µM (not active)
IC50 [5]: > 66 µM (inactive)
IC50 [6]: > 66 µM (inactive)

O=S(=O)(O)c1cc(/N=N/c2cc(S(=O)(=O)O)c3ccccc3c2O)ccc1/C=C/c1ccc(/N=N/c2cc(S(=O)(=O)O)c3ccccc3c2O)cc1S(=O)(=O)O
GI50 [1]: > 78.9 µM (inactive)
GI50 [2]: > 100 µM (inactive)
GI50 [3]: 36.6 µM (inactive)

COc1ccc(C(C)C)cc1S(=O)(=O)Nc1ccncc1
IC50 [7]: > 50 µM (not active)

COc1cnc(-c2ccccn2)nc1N(C)C
EC50 [8]: 214 µM (active)
EC50 [9]: 8.34 µM (active)
AC50 [10]: 8.4 µM (active)
IC50 [11]: 1.92 µM (active)

CCC(=O)Nc1ccc(C(=O)CSc2nc3ccccc3cc2CC)cc1
IC50 [7]: > 50 µM (not active)

CC1=CC(=O)C(C(C)C)=C/C1=C(\c1cc(C(C)C)c(OP(=O)(O)O)cc1C)c1ccccc1C(=O)O
IC50 [12]: 33.4 µM (active)
AC50 [13]: 2.27 µM (active)

O=CC(NC(=O)N(CCCl)N=O)C(O)C(O)C(O)CO (stereo not drawn)
GI50 [1]: 760 µM (inactive)
GI50 [2]: 97.7 µM (inactive)
GI50 [3]: 79.6 µM (inactive)

CCCC(=O)n1nc(-c2ccco2)nc1N
IC50 [7]: 1.28 µM (active)

N#Cc1ccc(/C=C/C(=O)c2ccco2)cc1
EC50 [14]: 17.2 µM (active)
EC50 [15]: 16.6 µM (active)

O=C(OC[C@H]1O[C@@H](OC(=O)c2cc(O)c(O)c(OC(=O)c3cc(O)c(O)c(O)c3)c2)[C@H](OC(=O)c2cc(O)c(O)c(OC(=O)c3cc(O)c(O)c(O)c3)c2)[C@@H](OC(=O)c2cc(O)c(O)c(OC(=O)c3cc(O)c(O)c(O)c3)c2)[C@@H]1OC(=O)c1cc(O)c(O)c(OC(=O)c2cc(O)c(O)c(O)c2)c1)c1cc(O)c(O)c(OC(=O)c2cc(O)c(O)c(O)c2)c1 [TANNIC ACID]
IC50 [16]: < 0.16 µM (active)

COc1ccc(-n2c(=O)c3c4c(sc3n3c(=S)[nH]nc23)CCC4)cc1
IC50 [16]: 20.4 µM (active)

CCC(=C(c1ccc(OC)cc1)c1ccc(OC)cc1)c1cn(CC(O)CN2CCN(C)CC2)c2ccccc12 (stereo not drawn)
EC50 [14]: 6.34 µM (active)
EC50 [15]: 7.95 µM (active)

Cc1ccc(S(=O)(=O)CC(=O)Nc2c(C)n(C)n(-c3ccccc3)c2=O)cc1
IC50 [7]: 3.58 µM (active)

O=C(c1csnn1)N1CCC2(CC1)CCN(c1ccccn1)CC2
AC50 [17]: 25.1 µM (inconclusive)
AC50 [18]: 20 µM (inconclusive)
AC50 [19]: 20 µM (inconclusive)

CC(Cc1ccccc1Sc1ccc(O)cc1)N(C)C (stereo not drawn)
IC50 [16]: 71.9 µM (active)

Cc1cccc(N/C=C/C(=C(C#N)C#N)N(C)C)c1
IC50 [4]: 15.6 µM (not active)

CC(=O)c1c(O)n(Nc2nc(C)cc(C)n2)c(C)cc1=O
IC50 [11]: 12.9 µM (active)

O=C1OC(Nc2ccc(F)c([N+](=O)[O-])c2)c2ccccc21 (stereo not drawn)
IC50 [7]: > 50 µM (not active)

CSC1SCC2C(=O)N(C)C(C(C)C)C(=O)OCC(NC(=O)c3cnc4ccccc4n3)C(=O)NC(C)C(=O)N(C)C1C(=O)N(C)C(C(C)C)C(=O)OCC(NC(=O)c1cnc3ccccc3n1)C(=O)NC(C)C(=O)N2C (stereo not drawn)
GI50 [1]: 0.0075 µM (active)
GI50 [2]: 0.0075 µM (active)
AC50 [20]: < 0.26 µM (active)
GI50 [3]: 9.55e-05 µM (active)
AC50 [21]: < 0.26 µM (active)
IC50 [22]: 81.5 µM (inactive)

C[N+](C)(C)CCOC(=O)/C=C/c1c[nH]cn1
GI50 [1]: > 500 µM (inactive)
GI50 [2]: > 500 µM (inactive)
GI50 [3]: > 316 µM (inactive)

O=C(COC(=O)C12CC3CC(CC(O)(C3)C1)C2)NCCc1ccc(Cl)cc1
IC50 [7]: > 50 µM (not active)

CC(=O)c1ccc(NC(=O)c2noc(C(C)C)c2[N+](=O)[O-])cc1
IC50 [4]: 3.66 µM (active)

Cn1nc(-c2ccc(Cl)cc2)c2cc(C(=O)N3CCN(c4ccccn4)CC3)sc21
CC50 [23]: 3.7 µM (active)
AC50 [24]: > 70 µM (inactive)
AC50 [20]: 4.02 µM (active)
AC50 [21]: 28.6 µM (active)

CN(C)CCOc1cc2c(c3ccccc13)-c1ccccc1C2O (stereo not drawn)
GI50 [1]: 6.62 µM (inactive)
GI50 [2]: 5.02 µM (inactive)
GI50 [3]: 5.77 µM (inactive)

CCOC(=O)c1c(CSCc2ccccc2)oc2ccc(O)c(CN(C)C)c12
AC50 [24]: 22.2 µM (active)
EC50 [25]: > 195 µM (not active)
AC50 [20]: 9.79 µM (active)
AC50 [21]: 10.7 µM (active)
